Results from PMC9890130 (Clinical cancer research : an official journal of the …, 2023).
Bridge positions count the residues as written; N and C are the ends. Square brackets hold non-standard residues; d marks the D form. Peptide text beside a SMILES is read from it. * marks the point of attachment. DOTA = O=C(O)CN1CCN(CC(=O)O)CCN(CC(=O)*)CCN(CC(=O)O)CC1; Trp(1-CH2COOH) = N[C@@H](Cc1cn(CC(=O)O)c2ccccc12)C(=O)O; Hyp = O=C(O)[C@@H]1C[C@@H](O)CN1; NMeNle = CCCC[C@H](NC)C(=O)O; NMeA = CN[C@@H](C)C(=O)O

Experiments:
[1] = test system: MDAMB231, BFTC909, SUM149, and SCaBER cells; assay: In vitro binding assay, blocking with non-radioactive DK223; format: cell-based, human; conditions: 1 μM non-radioactive DK223; P<0.0001
[2] = biological target: Human PD-L1 Fc-tagged (Homo sapiens, UniProt Q9NZQ7); assay: Surface plasmon resonance; format: binding; conditions: read-out: KD (affinity for PD-L1); SPR, Biacore T200, CM5 chip, 25°C, 1:1 kinetics model; n=3
[3] = test system: SUM149 cells; assay: In vitro binding assay with [^68Ga]Ga-DK223; format: cell-based, human; conditions: 1×10^6 cells, ~1 μCi, 45 min at 4°C
[4] = test system: MDAMB231 xenografts; assay: Ex vivo biodistribution in mice with MDAMB231 xenografts; conditions: NSG mice bearing MDAMB231 tumors, n=4-5
[5] = in vivo; conditions: NSG, mouse, iv, total radioactivity
[6] = Ex vivo biodistribution in SCaBER xenografts; design: species or system NSG mice; conditions: NSG, mouse, tumor, iv, 50 uCi, total radioactivity
[7] = Ex vivo biodistribution in BFTC909 xenografts; design: species or system NSG mice; conditions: NSG, mouse, tumor, iv, 50 uCi, total radioactivity
[8] = In vivo stability of [^68Ga]Ga-DK223; design: species or system mice; conditions: urine collected at 60 min after i.v. injection, radio-HPLC; n=3
[9] = test system: MDAMB231 xenografts; conditions: NSG, mouse, in vivo, iv, 1 h
[10] = predicted residence time in human organ from mouse pharmacokinetic data
[11] = test system: SCaBER cells; assay: In vitro binding assay with [^68Ga]Ga-DK223; format: cell-based, human; conditions: 1×10^6 cells, ~1 μCi, 45 min at 4°C
[12] = %ID/g [^68Ga]Ga-DK223, Adrenals
[13] = %ID/g [^68Ga]Ga-DK223, Pancreas

Structure (SMILES): CCCC[C@H]1C(=O)N(C)[C@@H](CCCC)C(=O)N[C@@H](CCCCNC(=O)CN2CCN(CC(=O)O)CCN(CC(=O)O)CCN(CC(=O)O)CC2)C(=O)N[C@H](C(=O)NCC(N)=O)CSCC(=O)N[C@@H](Cc2ccc(O)cc2)C(=O)N(C)[C@@H](C)C(=O)N[C@@H](CC(N)=O)C(=O)N2CCC[C@H]2C(=O)N[C@@H](Cc2c[nH]cn2)C(=O)N[C@@H](CCC(=O)O)C(=O)N2C[C@H](O)C[C@H]2C(=O)N[C@@H](Cc2c[nH]c3ccccc23)C(=O)N[C@@H](CO)C(=O)N[C@@H](Cc2cn(CC(=O)O)c3ccccc23)C(=O)N1C [DK223] ({CH2CO}-Y[NMeA]NPHE[Hyp]WS[Trp(1-CH2COOH)][NMeNle][NMeNle]K(DOTA)CG-NH2; thioether N-14)
- [^68Ga]Ga-DK223 uptake in cells incubated with non-radioactive DK223 [1]: significantly reduced
- Kd [2]: 1.01 ± 0.83 nM

Structure (SMILES): CCCC[C@H]1C(=O)N(C)[C@@H](CCCC)C(=O)N[C@@H](CCCCNC(=O)CN2CCN(CC(=O)O)CCN(CC(=O)O)CCN(CC(=O)O)CC2)C(=O)N[C@H](C(=O)NCC(N)=O)CSCC(=O)N[C@@H](Cc2ccc(O)cc2)C(=O)N(C)[C@@H](C)C(=O)N[C@@H](CC(N)=O)C(=O)N2CCC[C@H]2C(=O)N[C@@H](Cc2c[nH]cn2)C(=O)N[C@@H](CCC(=O)O)C(=O)N2C[C@H](O)C[C@H]2C(=O)N[C@@H](Cc2c[nH]c3ccccc23)C(=O)N[C@@H](CO)C(=O)N[C@@H](Cc2cn(CC(=O)O)c3ccccc23)C(=O)N1C [[^68Ga]Ga-DK223, metal not drawn] ({CH2CO}-Y[NMeA]NPHE[Hyp]WS[Trp(1-CH2COOH)][NMeNle][NMeNle]K(DOTA)CG-NH2; thioether N-14)
- in vitro uptake [3]: less than 2 %IA
- %ID/g [^68Ga]Ga-DK223, Kidney ([4]; 5 min after injection): 28.59 ± 2.4 %ID/g
- %ID/g [^68Ga]Ga-DK223, Kidney ([4]; 30 min after injection): 24.4 ± 1.5 %ID/g
- %ID/g [^68Ga]Ga-DK223, Kidney ([4]; 60 min after injection): 22.99 ± 2.01 %ID/g
- %ID/g [^68Ga]Ga-DK223, Kidney ([4]; 90 min after injection): 16.23 ± 0.8 %ID/g
- %ID/g [^68Ga]Ga-DK223, Kidney ([4]; 180 min after injection): 19.14 ± 1.32 %ID/g
- tissue uptake at 0.5 h [5, 12]: 2.22 ± 0.19 %ID/g
- tissue uptake at 1.5 h [5, 12]: 0.18 ± 0.03 %ID/g
- tissue uptake at 3 h [5, 12]: 0.16 ± 0.11 %ID/g
- tissue uptake at 0.5 h ([5]; %ID/g [^68Ga]Ga-DK223, Bladder): 4.09 ± 0.49 %ID/g
- tissue uptake at 1 h ([5]; %ID/g [^68Ga]Ga-DK223, Bladder): 1.42 ± 0.12 %ID/g
- tissue uptake at 1.5 h ([5]; %ID/g [^68Ga]Ga-DK223, Bladder): 0.78 ± 0.07 %ID/g
- tissue uptake at 3 h ([5]; %ID/g [^68Ga]Ga-DK223, Bladder): 1.28 ± 0.32 %ID/g
- tissue uptake at 0.5 h ([5]; %ID/g [^68Ga]Ga-DK223, Blood): 7.63 ± 0.87 %ID/g
- tissue uptake at 1.5 h ([5]; %ID/g [^68Ga]Ga-DK223, Blood): 2.14 ± 0.08 %ID/g
- tissue uptake at 3 h ([5]; %ID/g [^68Ga]Ga-DK223, Blood): 1.72 ± 0.04 %ID/g
- tissue uptake at 0.5 h ([5]; %ID/g [^68Ga]Ga-DK223, Brain): 0.22 ± 0.05 %ID/g
- tissue uptake at 1.5 h ([5]; %ID/g [^68Ga]Ga-DK223, Brain): 0.05 ± 0.01 %ID/g
- tissue uptake at 3 h ([5]; %ID/g [^68Ga]Ga-DK223, Brain): 0.04 ± 0.01 %ID/g
- tissue uptake at 0.5 h ([5]; %ID/g [^68Ga]Ga-DK223, Femur): 1.74 ± 0.14 %ID/g
- tissue uptake at 1.5 h ([5]; %ID/g [^68Ga]Ga-DK223, Femur): 0.59 ± 0.04 %ID/g
- tissue uptake at 3 h ([5]; %ID/g [^68Ga]Ga-DK223, Femur): 0.64 ± 0.07 %ID/g
- tissue uptake at 0.5 h ([5]; %ID/g [^68Ga]Ga-DK223, Heart): 2.49 ± 0.3 %ID/g
- tissue uptake at 1.5 h ([5]; %ID/g [^68Ga]Ga-DK223, Heart): 0.73 ± 0.03 %ID/g
- tissue uptake at 3 h ([5]; %ID/g [^68Ga]Ga-DK223, Heart): 0.46 ± 0.03 %ID/g
- tissue uptake at 0.5 h ([5]; %ID/g [^68Ga]Ga-DK223, Liver): 2.85 ± 0.41 %ID/g
- tissue uptake at 1 h ([5]; %ID/g [^68Ga]Ga-DK223, Liver): 1.31 ± 0.08 %ID/g
- tissue uptake at 1.5 h ([5]; %ID/g [^68Ga]Ga-DK223, Liver): 0.91 ± 0.11 %ID/g
- tissue uptake at 3 h ([5]; %ID/g [^68Ga]Ga-DK223, Liver): 0.82 ± 0.09 %ID/g
- tissue uptake at 0.5 h ([5]; %ID/g [^68Ga]Ga-DK223, Lung): 11 ± 2.29 %ID/g
- tissue uptake at 1.5 h ([5]; %ID/g [^68Ga]Ga-DK223, Lung): 5.3 ± 1.68 %ID/g
- tissue uptake at 3 h ([5]; %ID/g [^68Ga]Ga-DK223, Lung): 2.98 ± 0.71 %ID/g
- tissue uptake at 0.5 h ([5]; %ID/g [^68Ga]Ga-DK223, Muscle): 0.85 ± 0.09 %ID/g
- tissue uptake at 1.5 h ([5]; %ID/g [^68Ga]Ga-DK223, Muscle): 0.17 ± 0.01 %ID/g
- tissue uptake at 3 h ([5]; %ID/g [^68Ga]Ga-DK223, Muscle): 0.08 ± 0.02 %ID/g
- tissue uptake at 0.5 h [5, 13]: 2.01 ± 0.54 %ID/g
- tissue uptake at 1 h [5, 13]: 0.45 ± 0.05 %ID/g
- tissue uptake at 1.5 h [5, 13]: 0.39 ± 0.01 %ID/g
- tissue uptake at 3 h [5, 13]: 0.24 ± 0.03 %ID/g
- tissue uptake at 0.5 h ([5]; %ID/g [^68Ga]Ga-DK223, Spleen): 2.45 ± 0.51 %ID/g
- tissue uptake at 1 h ([5]; %ID/g [^68Ga]Ga-DK223, Spleen): 1.05 ± 0.07 %ID/g
- tissue uptake at 1.5 h ([5]; %ID/g [^68Ga]Ga-DK223, Spleen): 0.71 ± 0.06 %ID/g
- tissue uptake at 3 h ([5]; %ID/g [^68Ga]Ga-DK223, Spleen): 0.58 ± 0.03 %ID/g
- tissue uptake at 0.5 h ([5]; %ID/g [^68Ga]Ga-DK223, Thymus): 7.02 ± 1.06 %ID/g
- tissue uptake at 1 h ([5]; %ID/g [^68Ga]Ga-DK223, Thymus): 3.53 ± 0.27 %ID/g
- tissue uptake at 1.5 h ([5]; %ID/g [^68Ga]Ga-DK223, Thymus): 1.26 ± 0.47 %ID/g
- tissue uptake at 3 h ([5]; %ID/g [^68Ga]Ga-DK223, Thymus): 1.52 ± 0.75 %ID/g
- tissue uptake at 0.5 h ([5]; %ID/g [^68Ga]Ga-DK223, Tumor): 14.3 ± 1.54 %ID/g
- tissue uptake at 1.5 h ([5]; %ID/g [^68Ga]Ga-DK223, Tumor): 12.2 ± 0.32 %ID/g
- tissue uptake at 3 h ([5]; %ID/g [^68Ga]Ga-DK223, Tumor): 11.6 ± 0.79 %ID/g
- tissue uptake at 1 h [6]: < 3 %ID/g
- tissue uptake at 1 h [7]: 21 ± 2.1 %ID/g
- in vivo stability, urine [8]: no metabolic cleavage
- %ID/g [^68Ga]Ga-DK223, Adrenals [9]: 4.74 ± 3.64 %ID/g
- %ID/g [^68Ga]Ga-DK223, Blood [9]: 3.05 ± 0.11 %ID/g
- %ID/g [^68Ga]Ga-DK223, Femur [9]: 0.89 ± 0.06 %ID/g
- %ID/g [^68Ga]Ga-DK223, Heart [9]: 0.95 ± 0.07 %ID/g
- %ID/g [^68Ga]Ga-DK223, Lung [9]: 4.7 ± 0.42 %ID/g
- %ID/g [^68Ga]Ga-DK223, Muscle [9]: 0.36 ± 0.04 %ID/g
- %ID/g [^68Ga]Ga-DK223, Tumor [9]: 15.21 ± 1.43 %ID/g
- %ID/g [^68Ga]Ga-DK223, Ovaries ([9]; female): 0.93 ± 0.08 %ID/g
- Residence time, Adrenals [10]: 0.00014 h
- Residence time, Bladder [10]: 0.00187 h
- Residence time, Blood [10]: 0.1753 h
- Residence time, Brain [10]: 0.00118 h
- Residence time, Femur [10]: 0.03956 h
- Residence time, Heart [10]: 0.0151 h
- Residence time, Kidney [10]: 0.0337 h
- Residence time, Large Intestine (with contents) [10]: 0.00099 h
- Residence time, Liver [10]: 0.01633 h
- Residence time, Lung [10]: 0.03245 h
- Residence time, Muscle [10]: 0.06168 h
- Residence time, Ovaries [10]: 0.00011 h
- Residence time, Pancreas [10]: 0.00052 h
- Residence time, Small Intestine (with contents) [10]: 0.00453 h
- Residence time, Spleen [10]: 0.00129 h
- Residence time, Stomach (with contents) [10]: 0.00072 h
- Residence time, Thymus [10]: 0.00047 h
- Residence time, Uterus [10]: 0.00114 h
- in vitro uptake [11]: less than 2 %IA
